This note sets out measurements from ChEMBL document CHEMBL5335787, “Fragment-based and structure-guided discovery of perforin inhibitors” (Eur J Med Chem, 2023).

Data set [1] deals with T1, Perforin-1 (Homo sapiens) (UniProt P14222).
T1 sequence (whole entry): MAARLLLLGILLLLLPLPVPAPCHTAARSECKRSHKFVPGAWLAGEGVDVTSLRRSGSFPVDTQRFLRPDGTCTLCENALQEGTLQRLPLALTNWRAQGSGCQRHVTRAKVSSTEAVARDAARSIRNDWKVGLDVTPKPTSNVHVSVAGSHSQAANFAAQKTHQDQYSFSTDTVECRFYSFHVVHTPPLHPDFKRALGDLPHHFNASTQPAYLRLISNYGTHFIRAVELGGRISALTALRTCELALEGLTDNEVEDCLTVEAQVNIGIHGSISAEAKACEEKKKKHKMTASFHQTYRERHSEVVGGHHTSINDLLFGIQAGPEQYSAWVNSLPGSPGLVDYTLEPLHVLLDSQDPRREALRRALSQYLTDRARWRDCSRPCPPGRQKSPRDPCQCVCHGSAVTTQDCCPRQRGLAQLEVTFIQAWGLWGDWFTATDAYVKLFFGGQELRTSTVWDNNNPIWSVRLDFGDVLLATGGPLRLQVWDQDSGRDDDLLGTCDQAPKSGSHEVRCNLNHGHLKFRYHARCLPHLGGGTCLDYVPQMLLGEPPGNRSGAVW
The data set can be described thus: Inhibition of perforin-dependent cell killing activity of human KHYG-1 cells assessed as reduction in cytotoxicity against K562 cells preincubated for 20 mins followed by 51Cr labelled K562 cells addition and measured after 4 hrs by gamma counter analysis. The class given is cell-based. The conditions noted are these: time 260.0 min.

The nature of data set [2]: Cytotoxicity against human KHYG-1 cells assessed as cell viability at 1 uM measured after 24 hrs by trypan blue staining based analysis relative to control. The format is toxicity. As to conditions: read-out: Activity.
Data set [3] in a line: Cytotoxicity against human KHYG-1 cells assessed as cell viability at 0.24 uM measured after 24 hrs by trypan blue staining based analysis relative to control. The format is toxicity. As to conditions: read-out: Activity.
Data set [4] concerns the target T2, Perforin-1 (Mus musculus) (UniProt P10820).
T2 sequence (whole entry): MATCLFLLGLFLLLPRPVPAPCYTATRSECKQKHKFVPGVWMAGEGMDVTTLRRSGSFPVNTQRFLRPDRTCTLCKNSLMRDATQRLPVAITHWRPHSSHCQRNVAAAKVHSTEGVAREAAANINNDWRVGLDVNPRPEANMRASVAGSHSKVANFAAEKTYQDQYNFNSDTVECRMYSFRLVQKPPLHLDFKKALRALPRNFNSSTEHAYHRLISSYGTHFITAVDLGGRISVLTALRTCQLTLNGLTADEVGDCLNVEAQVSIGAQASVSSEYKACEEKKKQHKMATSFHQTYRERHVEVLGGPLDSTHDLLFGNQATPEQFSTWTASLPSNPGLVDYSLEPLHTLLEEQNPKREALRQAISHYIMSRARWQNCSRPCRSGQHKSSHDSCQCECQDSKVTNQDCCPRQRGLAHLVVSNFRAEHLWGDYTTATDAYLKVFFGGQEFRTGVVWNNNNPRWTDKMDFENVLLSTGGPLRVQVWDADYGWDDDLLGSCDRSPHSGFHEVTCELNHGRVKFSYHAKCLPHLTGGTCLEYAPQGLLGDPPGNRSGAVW
The data set can be described thus: Binding affinity to recombinant mouse perforin expressed in baculovirus-infected Sf21 cells assessed as change in chemical shift by 19F NMR assay.

A short description of data set [5]: Cytotoxicity against human KHYG-1 cells assessed as cell viability at 0.38 uM measured after 24 hrs by trypan blue staining based analysis relative to control. The conditions noted are these: read-out: Activity. The format is toxicity.
For data set [6], the target named is T1, Perforin-1 (Homo sapiens). The data set is described as follows: Inhibition of perforin-dependent cell killing activity of human KHYG-1 cells assessed as reduction in cytotoxicity against K562 cells at 100 uM preincubated for 20 mins followed by 51Cr labelled K562 cells addition and measured after 4 hrs by gamma counter analysis relative to control. The format is cell-based. The conditions noted are these: time 260.0 min.

The subject of a further data set is HepG2. The data set can be described thus: Cytotoxicity against human HepG2 cells assessed as reduction in cell viability at 0.001 to 100 uM incubated for 5 days by SRB assay. The format is toxicity, cell-based. The conditions noted are these: hepg2, 120 h, dose 0.001-100 µM, time 5 day. (In general: Sulforhodamine B stains cellular protein and so reports cell mass.)

For data set [7], the target named is T3, Perforin-1 (Mus musculus, UniProt P10820).
T3 sequence (P10820 whole entry): T2 sequence (whole entry)
The data set can be described thus: Binding affinity to lipid-coated L1 chip immobilised recombinant mouse perforin expressed in baculovirus-infected Sf21 cells by SPR analysis.

Data set [8] concerns the target T3, Perforin-1. The data set is described as follows: Binding affinity to CM5 chip immobilised recombinant mouse perforin expressed in baculovirus-infected Sf21 cells by SPR analysis. In general terms: Surface plasmon resonance follows binding to a sensor surface in real time, without labels.

Each structure is given as a SMILES string.

The term IC90 denotes the concentration at which the effect reaches the 90% level. Regarding `Cc1ccc(NS(=O)(=O)c2ccc3c(c2)CCN3)cc1-c1cnc(N)nc1`, the IC90 in data set [1] is 33 nM. Further, the viability at 24 h, 1 µM in data set [2] is greater than 85%.
Take `Cc1cc(C(N)=O)cc(S(=O)(=O)c2ccc(C)c(-c3cnc(N)nc3)c2)c1`: the IC90 in data set [1] turned out to be 29 nM. The viability at 24 h, 0.24 µM in [3] is 64%.
As to `Nc1ccc(S(=O)(=O)c2cccc(-c3cnc(N)nc3)c2)c(C(F)(F)F)c1`, in data set [1], the IC90 was found to be 131 nM. Besides, the Activity in data set [4] was found to be 8.5 Hz.
For `Cc1cc(S(=O)(=O)c2ccc(C)c(-c3cnc(N)nc3)c2)c(C(F)(F)F)cc1N` the same measures were 203 nM and 7.6 Hz.
Regarding `CNC(=O)Nc1ccc(-c2cc(S(=O)(=O)c3ccc4c(c3)CCN4)ccc2C)cc1`, the concentration for an effect of 90% (IC90) in [1] was 4460 nM. Also, the viability at 24 h, 1 µM in data set [2] is greater than 85%.
The like results for `Cc1ccc(S(=O)(=O)c2ccc3c(c2)CCN3)cc1-c1ccc(N)nc1` were, in that order, 361 nM and greater than 85%.
For the molecule `Cc1ccc(S(=O)(=O)c2ccc3c(c2)CCN3)cc1-c1cnc2n[nH]cc2c1`, the IC90 in [1] came to 40 nM. For the same molecule, in data set [2], the viability at 24 h, 1 µM stood at 56%. Moreover, in [5], the viability at 24 h, 0.38 µM was found to be 97%.
For `Cc1ccc(NS(=O)(=O)c2ccc(N)cc2C(F)(F)F)cc1-c1cnc(N)nc1`, the IC90 in data set [1] was determined as 1900 nM. For the same molecule, in [4], the Activity is 5.5 Hz.
Turning to `Cc1ccc(S(=O)(=O)c2ccc3[nH]ccc3c2)cc1-c1cnc(N)nc1`, the IC90 in data set [1] came out at 496 nM. The viability at 24 h, 1 µM in [2] is greater than 85%.
For `Cc1cc(S(=O)(=O)c2ccc3c(c2)CCN3)ccc1-c1cnc(N)nc1`, in data set [1], the IC90 was greater than 3000 nM. In addition, the viability at 24 h, 1 µM in [2] was greater than 85%.
For `Cc1cc(S(=O)(=O)Nc2ccc(C)c(-c3cnc(N)nc3)c2)ccc1N`, the IC90 in data set [1] was found to be 70 nM. Besides, the viability at 24 h, 1 µM in data set [2] is greater than 85%.
For `CCNc1ccc(S(=O)(=O)c2ccc(C)c(-c3cnc(N)nc3)c2)c(C(F)(F)F)c1`, the IC90 in [1] came out at 31 nM. The Activity in [4] is 14.5 Hz.
On to `Cc1ccc(S(=O)(=O)c2ccc3c(c2)CNC3=O)cc1-c1cnc(N)nc1`, for which, in [1], the IC90 is 199 nM. The viability at 24 h, 1 µM in data set [2] was greater than 85%.
Broadly, the inhibition is how much of the control response was suppressed. Consider `Nc1ccc(S(=O)(=O)c2ccc(N)cc2)cc1` [DAPSONE], for which the IC90 in [1] is greater than 100000 nM. The inhibition in [6] turned out to be 65%. Also, in the data set on HepG2, the Activity entry is on record as “Non-Toxic”.
By Kd is commonly meant the free concentration of one partner at which half of the binding sites on the other are occupied at equilibrium, for simple one-to-one binding. Consider `Cc1cc(S(=O)(=O)c2ccc(C)c(-c3cnc(N)nc3)c2)ccc1N`, for which, in [1], the IC90 turned out to be 169 nM. For the same molecule, the viability at 24 h, 1 µM in [2] was greater than 85%. Moreover, the Kd is roughly 200 nM at Perforin-1 [7] and 110000 nM at Perforin-1 [8].
For the molecule `Cc1ccc(S(=O)(=O)c2ccc(N)cc2)cc1-c1cccnc1`, the IC90 in data set [1] worked out at 43000 nM.
For the molecule `Cc1ccc(S(=O)(=O)c2ccc3c(c2)CCO3)cc1-c1cnc(N)nc1`, the IC90 in [1] was 160 nM. In addition, the viability at 24 h, 1 µM in data set [2] was greater than 85%.
On to `Cc1ccc(S(=O)(=O)c2ccc3c(c2)CCNC3=O)cc1-c1cnc(N)nc1`, for which the 90% effect concentration (IC90) in [1] was determined as 40 nM. In data set [2], the viability at 24 h, 1 µM was greater than 85%.
With `Cc1cc(C(=O)Nc2ccc(C)c(-c3cnc(N)nc3)c2)ccc1N`, the concentration for an effect of 90% (IC90) in data set [1] is greater than 30000 nM. In addition, the viability at 24 h, 1 µM in data set [2] was greater than 85%.
Consider `Cc1ccc(S(=O)(=O)c2ccc(N)cc2)cc1-c1cnc(N)nc1`, for which the IC90 in data set [1] is 3400 nM.
As for `Cc1cc(NC(=O)c2ccc(C)c(-c3cnc(N)nc3)c2)ccc1N`, the IC90 in data set [1] was greater than 30000 nM. The viability at 24 h, 1 µM in data set [2] is greater than 85%.
Turning to `Cc1cc(NS(=O)(=O)c2ccc(C)c(-c3cnc(N)nc3)c2)ccc1N`, the 90% effect concentration (IC90) in data set [1] was 2290 nM. For the same molecule, the viability at 24 h, 1 µM in data set [2] is greater than 85%.
`Cc1ccc(S(=O)(=O)c2ccc3c(c2)CCN3)cc1-c1cnc(N)nc1`: the concentration for an effect of 90% (IC90) in data set [1] worked out at 30 nM. In data set [2], the viability at 24 h, 1 µM was greater than 85%. Further, the Activity result in the data set on HepG2 is “Non-Toxic”. Moreover, the Kd at Perforin-1 [7] was roughly 200 nM; on Perforin-1 [8], 85000 nM.
Take `Cc1cc(S(=O)(=O)c2ccc(C)c(-c3cnc(N)nc3)c2)ccc1C(N)=O`: the concentration for an effect of 90% (IC90) in data set [1] worked out at 155 nM. For the same molecule, the viability at 24 h, 1 µM in data set [2] is greater than 85%.
For `Cc1cc2c(cc1-c1cnc(N)nc1)S(=O)(=O)c1ccc(C(N)=O)cc1CC2C` (stereo not drawn), the IC90 in data set [1] amounted to 40 nM. In addition, in data set [2], the viability at 24 h, 1 µM worked out at 76%.
In the case of `Cc1ccc(S(=O)(=O)c2ccc(N)cc2C(F)(F)F)cc1-c1cnc(N)nc1`, the IC90 in [1] was found to be 21 nM. Moreover, in [4], the Activity was 13.2 Hz.
On to `Cc1ccc(S(=O)(=O)c2ccc3[nH]ncc3c2)cc1-c1cnc(N)nc1`, for which the IC90 in [1] came out at 281 nM. The viability at 24 h, 1 µM in data set [2] is greater than 85%.
With `Cc1ccc(S(=O)(=O)c2ccc3c(c2)CCN3)cc1-c1ccc2n[nH]cc2c1`, in [1], the IC90 is 1040 nM. The viability at 24 h, 1 µM in data set [2] was greater than 85%.
`Cc1ccc(S(=O)(=O)c2ccc3c(c2)CCN3C)cc1-c1cnc(N)nc1`: in data set [1], the IC90 was 406 nM. Moreover, the viability at 24 h, 1 µM in [2] is greater than 85%.
